Data on twelve compounds can be found in ChEMBL document CHEMBL4673391, “Multiresidue Tetrapeptide Substitutions Yield a 140-fold Selective Melanocortin-3 over Melanocortin-4 Receptor Agonist” (ACS Med Chem Lett, 2021).

Experiment [1] deals with Melanocyte-stimulating hormone receptor (Mus musculus, UniProt Q01727). In words: Agonist activity at mouse melanocortin receptor 1 expressed in HEK293 cells assessed as stimulation of cAMP accumulation incubated for 2 hrs by cAMP Alpha-screen assay. It is filed as functional, cell-based. (In general: Changes in cAMP serve as a functional read-out for many G protein-coupled receptors.)
Sequence of Melanocyte-stimulating hormone receptor (Q01727 whole entry): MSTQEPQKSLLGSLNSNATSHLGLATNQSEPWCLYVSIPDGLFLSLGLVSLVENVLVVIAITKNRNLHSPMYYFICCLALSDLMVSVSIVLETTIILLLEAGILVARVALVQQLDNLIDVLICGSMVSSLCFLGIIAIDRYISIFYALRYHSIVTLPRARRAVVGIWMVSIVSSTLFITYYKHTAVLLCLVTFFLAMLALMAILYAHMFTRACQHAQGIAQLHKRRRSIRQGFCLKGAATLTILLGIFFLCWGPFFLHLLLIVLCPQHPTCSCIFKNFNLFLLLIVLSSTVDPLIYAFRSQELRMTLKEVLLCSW

A further experiment deals with Melanocortin receptor 5 (Mus musculus, UniProt P41149). In words: Agonist activity at mouse melanocortin receptor 5 expressed in HEK293 cells assessed as stimulation of cAMP accumulation incubated for 2 hrs by cAMP Alpha-screen assay. It is filed as functional, cell-based.
Sequence of Melanocortin receptor 5 (P41149 whole entry): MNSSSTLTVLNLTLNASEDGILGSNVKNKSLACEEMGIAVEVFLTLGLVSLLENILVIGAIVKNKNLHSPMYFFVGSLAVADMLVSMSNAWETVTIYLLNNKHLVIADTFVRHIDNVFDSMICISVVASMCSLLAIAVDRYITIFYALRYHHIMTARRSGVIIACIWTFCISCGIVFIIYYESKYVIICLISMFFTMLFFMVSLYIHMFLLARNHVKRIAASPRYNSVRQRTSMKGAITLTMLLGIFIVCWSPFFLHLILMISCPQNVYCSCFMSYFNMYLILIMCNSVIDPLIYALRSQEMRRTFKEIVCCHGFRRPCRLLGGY
The target in the next experiment is Melanocortin receptor 3 (Mus musculus, UniProt P33033). In words: Agonist activity at mouse melanocortin receptor 3 expressed in HEK293 cells assessed as stimulation of cAMP accumulation incubated for 2 hrs by cAMP Alpha-screen assay. The experiment is classed as functional, cell-based.
Sequence of Melanocortin receptor 3 (P33033 whole entry): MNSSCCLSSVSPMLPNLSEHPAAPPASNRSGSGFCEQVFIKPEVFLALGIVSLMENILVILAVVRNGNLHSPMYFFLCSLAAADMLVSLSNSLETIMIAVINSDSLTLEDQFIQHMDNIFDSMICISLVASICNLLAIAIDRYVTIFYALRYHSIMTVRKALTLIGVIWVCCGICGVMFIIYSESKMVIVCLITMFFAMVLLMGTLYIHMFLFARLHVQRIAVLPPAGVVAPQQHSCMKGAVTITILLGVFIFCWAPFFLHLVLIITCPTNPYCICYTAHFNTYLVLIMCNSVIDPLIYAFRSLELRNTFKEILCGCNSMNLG
Experiment [2] has as its target Melanocortin receptor 4 (Mus musculus) (UniProt P56450). Nature of the experiment: Agonist activity at mouse melanocortin receptor 4 expressed in HEK293 cells assessed as stimulation of cAMP accumulation at 100 uM incubated for 2 hrs by cAMP Alpha-screen assay relative to control. It is filed as functional, cell-based.
The target in experiment [3] is T1, Melanocortin receptor 4 (Mus musculus, UniProt P56450). In words: Antagonist activity at mouse melanocortin receptor 4 expressed in HEK293 cells assessed as inhibition of NDP-MSH-induced cAMP accumulation incubated for 2 hrs by cAMP Alpha-screen assay based Schild analysis. Conditions: for Kb: read-out: pA2 (converted). It is filed as functional, cell-based.
T1 sequence (P56450 whole entry): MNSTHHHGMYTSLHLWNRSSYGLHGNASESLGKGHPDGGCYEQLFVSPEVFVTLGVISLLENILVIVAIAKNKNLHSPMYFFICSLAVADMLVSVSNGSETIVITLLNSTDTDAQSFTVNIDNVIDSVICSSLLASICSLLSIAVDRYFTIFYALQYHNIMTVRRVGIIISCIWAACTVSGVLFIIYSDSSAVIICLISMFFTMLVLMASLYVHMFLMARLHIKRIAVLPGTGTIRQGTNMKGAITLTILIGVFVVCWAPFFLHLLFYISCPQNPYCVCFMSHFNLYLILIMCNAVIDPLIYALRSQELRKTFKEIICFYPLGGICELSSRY
The species entered for experiment [4] is Mus musculus. Nature of the experiment: Selectivity index, ratio of Ki for mouse melanocortin receptor 4 expressed in HEK293 cells to EC50 for mouse melanocortin receptor 3 expressed in HEK293 cells assessed as stimulation of cAMP accumulation incubated for 2 hrs by cAMP Alpha-screen assay. It is filed as cell-based.
The target of experiment [5] is Melanocyte-stimulating hormone receptor (Mus musculus) (UniProt Q01727). In words: Partial agonist activity at mouse melanocortin receptor 1 expressed in HEK293 cells assessed as stimulation of cAMP accumulation incubated for 2 hrs by cAMP Alpha-screen assay relative to NDP-MSH. The experiment is classed as functional, cell-based. The conditions noted are these: filed as partial agonist.
Sequence of Melanocyte-stimulating hormone receptor (Mus musculus) (Q01727 whole entry, looked up): as the sequence (Q01727 whole entry) above

Experiment [6] deals with T1, Melanocortin receptor 4. In words: Agonist activity at mouse melanocortin receptor 4 expressed in HEK293 cells assessed as stimulation of cAMP accumulation incubated for 2 hrs by cAMP Alpha-screen assay. It is filed as functional, cell-based.
For experiment [7], the species on record is Mus musculus. In words: Selectivity index, ratio of EC50 for mouse melanocortin receptor 4 expressed in HEK293 cells to EC50 for mouse melanocortin receptor 3 expressed in HEK293 cells assessed as stimulation of cAMP accumulation incubated for 2 hrs by cAMP Alpha-screen assay. It is filed as cell-based.

Sequence of Melanocortin receptor 4 (Mus musculus) (P56450 whole entry): as the sequence (P56450 whole entry) above

Regarding `CC(=O)N[C@H](C(=O)N[C@@H](CCCNC(=N)N)C(=O)N[C@H](Cc1ccc(-c2ccccc2)cc1)C(=O)N1Cc2ccccc2C[C@@H]1C(N)=O)C(C)C`, the EC50 (in general, the concentration giving half of the maximal effect) worked out at 1.7 nM in [1], 25 nM at Melanocortin receptor 5 and 36 nM at Melanocortin receptor 3. Besides, the Activity in experiment [2] worked out at 35%. For the same compound, at Melanocortin receptor 4 [3], the Ki (as a rule, a measure of affinity in units of concentration, obtained from inhibition or displacement) turned out to be 250 nM. The Kb at Melanocortin receptor 4 [3] is 251 nM. The Selectivity ratio in the experiment filed under Mus musculus [4] was determined as 7.
As to `CC(=O)N[C@@H](Cc1c[nH]cn1)C(=O)N[C@@H](CCCNC(=N)N)C(=O)N[C@H](Cc1ccc(-c2ccccc2)cc1)C(=O)N1Cc2ccccc2C[C@@H]1C(N)=O`, the EC50 in experiment [1] was 0.9 nM; on Melanocortin receptor 5 it was 26 nM; on Melanocortin receptor 3, 39 nM. For the same compound, in [2], the Activity was 35%. Also, the Ki at Melanocortin receptor 4 [3] stood at 320 nM. Besides, the Kb on Melanocortin receptor 4 [3] is 316 nM. Also, the Selectivity ratio in the experiment listed under Mus musculus [4] turned out to be 8.
With `CC(=O)N[C@H](C(=O)N[C@@H](CCC(N)=O)C(=O)N[C@H](Cc1ccc(-c2ccccc2)cc1)C(=O)N1Cc2ccccc2C[C@H]1C(N)=O)C(C)C`, the EC50 was 80 nM in experiment [1], 31 nM on Melanocortin receptor 5 and 110 nM at Melanocortin receptor 3. Also, the Activity in [5] was 85%; in [2], 20%. In addition, on Melanocortin receptor 4 [3], the Ki is more than 10000 nM. Besides, the Kb on Melanocortin receptor 4 [3] is more than 10000 nM. Besides, the Selectivity ratio in the experiment listed under Mus musculus [4] was more than 90.
For `CC(=O)N[C@H](C(=O)N[C@@H](CCC(N)=O)C(=O)N[C@H](Cc1ccc(-c2ccccc2)cc1)C(=O)N1Cc2ccccc2C[C@@H]1C(N)=O)C(C)C`, the figures for the EC50 (in experiment [1]; at Melanocortin receptor 5; on Melanocortin receptor 3) were 150 nM, 36 nM and 70 nM, respectively. The Activity was 75% in [5] and 40% in experiment [2] (filed as agonist). Also, the Ki on Melanocortin receptor 4 [3] was more than 10000 nM. Besides, on Melanocortin receptor 4 [3], the Kb is more than 10000 nM. Also, in the experiment listed under Mus musculus [4], the Selectivity ratio is more than 140.
With `CC(=O)N[C@@H](CCCNC(=N)N)C(=O)N[C@@H](CCCNC(=N)N)C(=O)N[C@H](Cc1ccc(-c2ccccc2)cc1)C(=O)N1Cc2ccccc2C[C@H]1C(N)=O`, the EC50 in experiment [1] amounted to 0.23 nM; on Melanocortin receptor 5, 3.5 nM; at Melanocortin receptor 3 it was 11 nM. Besides, the Activity in experiment [2] was 35%. Besides, on Melanocortin receptor 4 [3], the Ki was 125 nM. The Kb on Melanocortin receptor 4 [3] is 126 nM. Further, the Selectivity ratio in the experiment listed under Mus musculus [4] worked out at 11.
`CC(=O)N[C@H](C(=O)N[C@@H](CCCNC(=N)N)C(=O)N[C@H](Cc1ccc(-c2ccccc2)cc1)C(=O)N1Cc2ccccc2C[C@H]1C(N)=O)C(C)C`: the values for the EC50 (in [1]; on Melanocortin receptor 5; on Melanocortin receptor 3) were 1.1 nM, 18 nM and 40 nM, respectively. In addition, the Activity in experiment [2] came to 10%. The Ki at Melanocortin receptor 4 [3] amounted to 400 nM. In addition, at Melanocortin receptor 4 [3], the Kb is 398 nM. The Selectivity ratio in the experiment listed under Mus musculus [4] amounted to 10.
On to `CC(=O)N[C@@H](CCCNC(=N)N)C(=O)N[C@@H](CCC(N)=O)C(=O)N[C@H](Cc1ccc(-c2ccccc2)cc1)C(=O)N1Cc2ccccc2C[C@H]1C(N)=O`, for which the figures for the EC50 (in [1]; on Melanocortin receptor 5; on Melanocortin receptor 3) were 60 nM, 16.4 nM and 66 nM, respectively. The Activity in experiment [2] (filed as agonist) turned out to be 40%. At Melanocortin receptor 4 [3], the Ki came out at 2000 nM. Further, on Melanocortin receptor 4 [3], the Kb was 2000 nM. Besides, the Selectivity ratio in the experiment listed under Mus musculus [4] was found to be 30.
On to `CC(=O)N[C@@H](Cc1c[nH]cn1)C(=O)N[C@@H](CCC(N)=O)C(=O)N[C@H](Cc1ccc(-c2ccccc2)cc1)C(=O)N1Cc2ccccc2C[C@@H]1C(N)=O`, for which the EC50 in experiment [1] is 123 nM; at Melanocortin receptor 5, 39 nM; on Melanocortin receptor 3, 110 nM. Besides, in experiment [2] (filed as agonist), the Activity amounted to 50%. At Melanocortin receptor 4 [3], the Ki worked out at 3980 nM. For the same compound, the Kb at Melanocortin receptor 4 [3] was 3980 nM. Besides, the Selectivity ratio in the experiment filed under Mus musculus [4] was 36.
As for `CC(=O)N[C@@H](CCCNC(=N)N)C(=O)N[C@@H](CCC(N)=O)C(=O)N[C@H](Cc1ccc(-c2ccccc2)cc1)C(=O)N1Cc2ccccc2C[C@@H]1C(N)=O`, the EC50 in experiment [1] came to 11 nM; at Melanocortin receptor 5 it was 5.6 nM; on Melanocortin receptor 3, 14 nM; at Melanocortin receptor 4 [6], 400 nM. Also, the Ratio EC50 in the experiment listed under Mus musculus [7] was 28.
As to `CC(=O)N[C@@H](Cc1c[nH]cn1)C(=O)N[C@@H](CCC(N)=O)C(=O)N[C@H](Cc1ccc(-c2ccccc2)cc1)C(=O)N1Cc2ccccc2C[C@H]1C(N)=O`, the EC50 is 160 nM in experiment [1], 31 nM on Melanocortin receptor 5 and 150 nM at Melanocortin receptor 3. Besides, the Activity in [2] was 20%. In addition, the inhibition constant Ki on Melanocortin receptor 4 [3] was 10000 nM. Further, on Melanocortin receptor 4 [3], the Kb is 10000 nM. In the experiment filed under Mus musculus [4], the Selectivity ratio came to 65.
Regarding `CC(=O)N[C@@H](Cc1c[nH]cn1)C(=O)N[C@@H](CCCNC(=N)N)C(=O)N[C@H](Cc1ccc(-c2ccccc2)cc1)C(=O)N1Cc2ccccc2C[C@H]1C(N)=O`, the figures for the EC50 (in experiment [1]; on Melanocortin receptor 5; on Melanocortin receptor 3) were 0.5 nM, 9 nM and 22 nM, respectively. For the same compound, in [2], the Activity was 35%. At Melanocortin receptor 4 [3], the Ki stood at 320 nM. Besides, the Kb at Melanocortin receptor 4 [3] was 316 nM. The Selectivity ratio in the experiment listed under Mus musculus [4] came out at 14.
As for `CC(=O)N[C@@H](CCCNC(=N)N)C(=O)N[C@@H](CCCNC(=N)N)C(=O)N[C@H](Cc1ccc(-c2ccccc2)cc1)C(=O)N1Cc2ccccc2C[C@@H]1C(N)=O`, the EC50 was found to be 0.6 nM in experiment [1], 5.7 nM at Melanocortin receptor 5 and 14 nM on Melanocortin receptor 3. For the same compound, the Activity in [2] (filed as agonist) was 40%. Moreover, the Ki at Melanocortin receptor 4 [3] stood at 160 nM. Also, at Melanocortin receptor 4 [3], the Kb is 158 nM. Moreover, in the experiment listed under Mus musculus [4], the Selectivity ratio amounted to 11.
